Patent US10065963B2 (Incyte Corporation, priority 2015, dated 2018)
Structures can show the parent of a compound that is named as a salt. Where two headings read alike, the source gives them in different places.

Experiments:
[1] = target: human JAK1 (a.a. 837-1142) (Homo sapiens, UniProt P23458); assay: In vitro JAK kinase assay (JAK1); format: biochemical; conditions: 1 mM ATP
[2] = target: human JAK2 (a.a. 828-1132) (Homo sapiens (Human), UniProt O60674); assay: In vitro JAK kinase assay (JAK2); format: biochemical; conditions: IC50 ratio, 1 mM ATP
[3] = target: PI3Kγ (p110γ) Recombinant Human Protein (Homo sapiens (Human), UniProt P48736); assay: PI3K-γ scintillation proximity assay; format: biochemical; conditions: 2 μM ATP, 20 μM PIP2
[4] = system: Phosphorylated Ribosomal Protein S6 (RPS6) in THP-1 cells; assay: THP-1 RPS6 ELISA assay; format: cell-based, human; conditions: 10 nM MCP-1, read-out: PI3Kγ_THP1_RPS6_ELISA IC50
[5] = target: PI3Kδ (p110δ/p85α) Recombinant Human Protein (Homo sapiens (Human), UniProt O00329); assay: PI3Kδ scintillation proximity assay; format: biochemical; conditions: 2 μM ATP, 20 μM PIP2
[6] = Homo sapiens, THP-1, THP-1 cells

Sequence of PI3Kδ (p110δ/p85α) Recombinant Human Protein (O00329 whole entry): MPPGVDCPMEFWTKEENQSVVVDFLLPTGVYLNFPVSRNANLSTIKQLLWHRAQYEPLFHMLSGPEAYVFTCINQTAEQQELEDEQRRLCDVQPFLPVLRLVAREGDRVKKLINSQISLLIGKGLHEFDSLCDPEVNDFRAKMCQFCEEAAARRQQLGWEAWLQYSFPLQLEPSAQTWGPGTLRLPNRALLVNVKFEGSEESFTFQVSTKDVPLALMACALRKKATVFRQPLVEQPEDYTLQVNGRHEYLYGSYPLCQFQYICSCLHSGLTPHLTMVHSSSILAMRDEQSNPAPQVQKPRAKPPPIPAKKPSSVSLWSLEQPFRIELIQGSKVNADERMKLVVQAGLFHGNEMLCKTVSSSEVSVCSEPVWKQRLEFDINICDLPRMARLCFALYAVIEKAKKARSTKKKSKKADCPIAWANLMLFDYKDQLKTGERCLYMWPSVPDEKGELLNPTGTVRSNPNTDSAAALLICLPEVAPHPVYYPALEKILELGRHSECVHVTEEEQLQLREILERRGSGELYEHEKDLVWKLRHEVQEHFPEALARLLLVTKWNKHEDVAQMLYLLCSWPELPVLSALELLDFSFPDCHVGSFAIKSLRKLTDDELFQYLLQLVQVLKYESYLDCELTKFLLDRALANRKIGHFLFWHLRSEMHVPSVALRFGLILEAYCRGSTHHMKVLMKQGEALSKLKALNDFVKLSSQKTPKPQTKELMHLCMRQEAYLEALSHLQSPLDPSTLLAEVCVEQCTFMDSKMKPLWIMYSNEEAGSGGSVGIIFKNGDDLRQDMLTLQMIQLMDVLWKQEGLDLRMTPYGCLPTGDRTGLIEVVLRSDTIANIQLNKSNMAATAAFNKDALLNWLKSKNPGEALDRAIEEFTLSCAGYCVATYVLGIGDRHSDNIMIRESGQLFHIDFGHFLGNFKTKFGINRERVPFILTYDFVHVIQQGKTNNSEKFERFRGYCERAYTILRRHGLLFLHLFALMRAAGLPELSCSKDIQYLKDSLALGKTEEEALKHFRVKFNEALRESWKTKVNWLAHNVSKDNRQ
Sequence of PI3Kδ (p110δ/p85α) Recombinant Human Protein (P27986 whole entry partner): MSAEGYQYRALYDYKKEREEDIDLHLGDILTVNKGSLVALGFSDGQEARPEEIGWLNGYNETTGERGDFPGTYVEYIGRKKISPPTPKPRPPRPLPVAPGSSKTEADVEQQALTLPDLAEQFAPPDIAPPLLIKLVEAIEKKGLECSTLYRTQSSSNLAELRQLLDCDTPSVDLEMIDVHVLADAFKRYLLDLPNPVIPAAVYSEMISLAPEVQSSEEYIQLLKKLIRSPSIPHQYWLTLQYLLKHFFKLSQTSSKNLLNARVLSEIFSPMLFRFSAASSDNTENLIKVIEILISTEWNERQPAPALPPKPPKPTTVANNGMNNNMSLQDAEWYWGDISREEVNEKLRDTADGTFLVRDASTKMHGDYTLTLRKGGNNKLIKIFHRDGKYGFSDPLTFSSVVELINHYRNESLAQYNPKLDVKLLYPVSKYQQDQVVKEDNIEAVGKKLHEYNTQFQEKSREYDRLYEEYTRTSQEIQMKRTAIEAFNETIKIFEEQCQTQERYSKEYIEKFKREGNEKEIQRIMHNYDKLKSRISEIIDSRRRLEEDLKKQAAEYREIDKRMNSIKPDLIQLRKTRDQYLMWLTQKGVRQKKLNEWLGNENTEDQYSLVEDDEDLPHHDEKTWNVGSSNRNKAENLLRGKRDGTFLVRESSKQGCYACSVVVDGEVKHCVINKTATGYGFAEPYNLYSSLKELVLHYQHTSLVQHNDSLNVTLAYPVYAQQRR
Sequence of PI3Kγ (p110γ) Recombinant Human Protein (P48736 whole entry): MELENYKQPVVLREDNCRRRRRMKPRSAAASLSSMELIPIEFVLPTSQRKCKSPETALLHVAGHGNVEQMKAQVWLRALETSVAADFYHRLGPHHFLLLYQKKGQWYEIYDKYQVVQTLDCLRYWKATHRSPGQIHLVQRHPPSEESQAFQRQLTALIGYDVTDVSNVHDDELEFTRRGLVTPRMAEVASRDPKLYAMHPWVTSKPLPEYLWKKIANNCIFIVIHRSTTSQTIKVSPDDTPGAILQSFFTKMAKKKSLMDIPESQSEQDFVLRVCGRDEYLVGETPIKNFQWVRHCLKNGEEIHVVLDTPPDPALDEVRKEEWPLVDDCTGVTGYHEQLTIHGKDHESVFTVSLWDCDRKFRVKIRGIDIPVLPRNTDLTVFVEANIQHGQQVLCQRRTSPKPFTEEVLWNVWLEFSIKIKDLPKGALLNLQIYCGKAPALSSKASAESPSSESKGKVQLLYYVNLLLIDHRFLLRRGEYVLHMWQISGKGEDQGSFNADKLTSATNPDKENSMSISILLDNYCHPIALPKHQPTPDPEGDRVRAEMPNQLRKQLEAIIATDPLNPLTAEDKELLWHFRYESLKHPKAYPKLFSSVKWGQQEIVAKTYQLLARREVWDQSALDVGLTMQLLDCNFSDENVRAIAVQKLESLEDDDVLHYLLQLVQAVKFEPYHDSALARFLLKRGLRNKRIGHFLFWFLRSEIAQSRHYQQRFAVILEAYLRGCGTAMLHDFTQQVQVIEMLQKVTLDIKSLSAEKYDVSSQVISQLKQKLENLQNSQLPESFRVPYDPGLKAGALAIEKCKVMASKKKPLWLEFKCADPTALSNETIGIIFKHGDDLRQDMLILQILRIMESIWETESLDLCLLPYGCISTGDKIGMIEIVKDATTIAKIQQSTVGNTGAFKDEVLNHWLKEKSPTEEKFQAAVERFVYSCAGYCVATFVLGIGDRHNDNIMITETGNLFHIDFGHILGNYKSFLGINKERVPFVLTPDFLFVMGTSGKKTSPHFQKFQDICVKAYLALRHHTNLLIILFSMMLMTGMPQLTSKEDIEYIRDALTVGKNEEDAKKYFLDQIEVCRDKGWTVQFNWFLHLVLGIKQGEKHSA
Sequence of human JAK2 (a.a. 828-1132) (O60674 828-1132): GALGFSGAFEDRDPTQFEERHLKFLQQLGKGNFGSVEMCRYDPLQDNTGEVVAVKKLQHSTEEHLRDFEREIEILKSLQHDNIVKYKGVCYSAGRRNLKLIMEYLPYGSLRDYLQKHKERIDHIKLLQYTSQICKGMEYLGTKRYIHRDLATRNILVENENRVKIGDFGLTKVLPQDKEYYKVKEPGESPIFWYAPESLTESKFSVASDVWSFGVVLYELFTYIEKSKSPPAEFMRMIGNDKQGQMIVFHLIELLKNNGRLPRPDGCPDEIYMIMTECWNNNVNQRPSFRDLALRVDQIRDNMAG

IC50 [1] [nM] | JAK2/JAK1 [2] | IC50 [3] [nM] | IC50 [4, 6] [nM] | IC50 [5] [nM] | IC50 ([4]; THP-1 cells) [nM] | Compound
< 10 | >10 |  |  |  |  | N#CCC(C1CCN(c2cccc(Cl)n2)C1)n1cc(-c2ncnc3[nH]ccc23)cn1 (single isomer, unassigned) [Example 3, 3-[1-(6-chloropyridin-2-yl)pyrrolidin-3-yl]-3-[4-(7H-pyrrolo[2,3-d]pyrimidin-4-yl)-1H-pyrazol-1-yl]propanenitrile]
 |  | < 100 | < 500 | < 2000 |  | CC1CN(c2c(C(NC(=O)c3c(N)nn4cccnc34)C3CC3)cc(Cl)c3c(C#N)ncn23)CCS1(=O)=O (centres unmarked) [Example 176, 2-Amino-N-((8-chloro-1-cyano-5-(2-methyl-1,1-dioxidothio-morpholino)imidazo [1,5-a]pyridin-6-yl)(cyclopropyl)methyl)pyrazolo [1,5-a]pyrimidine-3-carboxamide trifluoroacetate salt]
 |  | < 100 | < 1000 | ≥ 2000 |  | CC1CN(c2c(C(NC(=O)c3c(N)nn4cccnc34)C(F)(F)F)cc(Cl)c3c(C#N)ncn23)CCS1(=O)=O (centres unmarked) [Example 177, 2-Amino-N-(1-(8-chloro-1-cyano-5-(2-methyl-1,1-dioxidothiomorpholino)imidazo[1,5-a]pyridin-6-yl)-2,2,2-trifluoroethyl)pyrazolo[1,5-a]pyrimidine-3-carboxamide trifluoroacetate salt]
 |  | < 100 |  | < 100 | < 500 | CCC(NC(=O)c1c(N)nn2cccnc12)c1cc(Cl)c2cncn2c1N1CCS(=O)(=O)CC1 (centres unmarked) [Example 179, 2-Amino-N-{1-[8-chloro-5-(1,1-dioxidothio-morpholin-4-yl)imidazo[1,5-a]pyridin-6-yl]propyl} pyrazolo[1,5-a] pyrimidine-3-carboxamide trifluoroacetate salt]
